Test results: patent US20240325406A1, “ANTIBACTERIAL COMPOSITIONS” (Wockhardt Limited, priority 2016, published 2024)

Columns and labels:
Experiment in all cases: Quantitative drug diffusion (disc) assay per CLSI, zone of inhibition
Type in all cases: cell-based
Design in all cases: key to CLSI susceptibility interpretation: (R): Resistant;; (I): Intermediate;; (S): Sensitive (Interpretation as per CLSI recommendations, 2010)
[1] = system: E. coli S-112
From the text: (§1) Antibacterial activity of cefepime combination with tazobactam against various bacterial strains, including those bacteria that are known to product one or more beta-lactamase, was investigated in quantitative drug diffusion assay performed as per CLSI recommendations (Clinical and Laboratory Standards Institute (CLSI), performance Standards for Antimicrobial Susceptibility Testing, 20th Informational Supplement, M 100-S20, Volume 30, No. 1, 2010).
(§2) In a typical study, overnight grown bacterial cultures after appropriate dilution were seed inoculated in the molten, cooled agar media and plates poured. Antibacterial agents containing 6 mm diameter discs were placed on the top of the agar surface. Zone of inhibition based observation was performed after 16 to 18 hours of incubation at 35±2° C. in ambient air. These assays are routinely used in determining possibility of treating a particular infection using given antibacterial agent or a composition. In general, zone inhibition values in the sensitive(S) range indicate that the strain is susceptible to that antibacterial agent or composition. It is generally assumed that the antibacterial agent or the combination under consideration would not be effective in treating the infection, if the zone inhibition values are in the resistant (R) range.

[2] = system: E. coli M50
From the text: as §1, §2

[3] = system: E. coli B-89
From the text: as §1, §2

[4] = system: E. coli 7MP
From the text: as §1, §2

[5] = system: E. coli B-123
From the text: as §1, §2

[6] = system: E. coli M-138
From the text: as §1, §2

[7] = 6 mm discs, 16 to 18 hours at 35±2° C., tazobactam 10 mcg in the combination
[8] = interpretation of zone of inhibition

With CO/N=C(\C(=O)N[C@@H]1C(=O)N2C(C(=O)[O-])=C(C[N+]3(C)CCCC3)CS[C@H]12)c1csc(N)n1 [Cefepime, cefepime] the “Zone of Inhibition” value [1, 7] was 17 mm, the CLSI susceptibility interpretation [1, 8] was “I” and the “Zone of Inhibition” value [2, 7] was 7.5 mm. For the same compound, the CLSI susceptibility interpretation [2, 8] was “R”, the “Zone of Inhibition” value [3, 7] was 8 mm and the CLSI susceptibility interpretation [3, 8] was “R”. For the same compound, the “Zone of Inhibition” value [4, 7] was 16 mm, the CLSI susceptibility interpretation [4, 8] was “I” and the “Zone of Inhibition” value [5, 7] was 8 mm. The CLSI susceptibility interpretation [5, 8] was “R”, the “Zone of Inhibition” value [6, 7] was “Nil” and the CLSI susceptibility interpretation [6, 8] was “R”.
